Experimental data published in US7173049B2, “Fungicidal compositions” (Bayer Cropscience S.A., priority 2001, dated 2007).

Test system: Plasmopara viticola
Assay: Test against downy mildew of grapevine (preventive action)
Type: in vivo, Plasmopara viticola on grapevine plants (Chardonnay variety)
Settings: alone
From the text: In the compositions according to the invention, the compound (I)/compound (II) ratio is advantageously chosen so as to produce a synergistic effect. The term “synergistic effect” especially means the effect defined by S. R. Colby in an article entitled “Calcul des responses synergiques et antagonistes des combinaisons herbicides [Calculation of the synergistic and antagonist responses of herbicidal combinations]”, Weeds, (1967), 15, pages 20–22.
[formula] in which E represents the expected percentage of inhibition of the disease for the combination of the two fungicides at defined doses (for example equal to x and y, respectively), X is the percentage of inhibition observed for the disease by compound (I) at a defined dose (equal to x), Y is the percentage of inhibition observed for the disease by compound (II) at a defined dose (equal to y). When the percentage of inhibition observed for the combination is greater than E, there is a synergistic effect.
Test of a composition against downy mildew of grapevine (Plasmopara viticola; preventive action):
Grapevine plants (Chardonnay variety) are grown on sandy soil in plastic pots, with one plant per pot. The two-month-old plants (6 to 7 leaves developed) are sprayed with compound (I) and compound (II), either alone or as a mixture.
The fungicidal active materials, either alone or as a mixture, are applied at a rate of 500 liters/ha.
The compound (I)/compound (II) ratios studied are 1/10, 1/15 and 1/20.
Three days after the treatment, each plant is inoculated by spraying with an aqueous suspension of Plasmopara viticola spores obtained from contaminated leaves. The spore concentration is about 100 000 units per ml.
After contamination, the plants are incubated for two days at 18° C. under a saturated atmosphere, and then for 5 days at about 20° C. with a relative humidity of 90–100%.
Seven days after the contamination, the symptoms are evaluated in terms of extent of surface area on the underside of the leaves that are infected, relative to the untreated but contaminated plants.
The efficacy of the treatment is calculated using the Abbott formula below: […]
The concentrations of the fungicides alone or as a mixture giving 50%, 70% or 90% efficacy for each component, in the appropriate test, are determined on the basis of the model of the dose/response sigmoid curve and their corresponding confidence intervals. The results are analysed using the Tammes or Colby model.

Row | Structure (SMILES) | % Efficacy (70 mg/l) [%] | % Efficacy (105 mg/l) [%] | % Efficacy (140 mg/l) [%] | % Efficacy (700 mg/l) [%] | % Efficacy (1050 mg/l) [%] | % Efficacy (1400 mg/l) [%] | % Efficacy (100 mg/l) [%] | % Efficacy (150 mg/l) [%] | % Efficacy (200 mg/l) [%] | % Efficacy (1000 mg/l) [%] | % Efficacy (1500 mg/l) [%] | % Efficacy (2000 mg/l) [%] | % Efficacy (10 mg/l, preventive, 7 days after contamination) [%]
1 | OP(O)O [Compound (IIa), phosphorous acid] | 0 | 0 | 0 | 4 | 50 | 52 | – | – | – | – | – | – | –
2 | CCO[PH](=O)O.[Al] [Compound (IIb), aluminium ethyl hydrogen phosphonate, reference compound] | – | – | – | – | – | – | 0 | 0 | 0 | 46 | 60 | 81 | –
3 | O=C(NCc1ncc(C(F)(F)F)cc1Cl)c1c(Cl)cccc1Cl [Compound (Ia), 2,6-dichloro-N-{[3-chloro-5-(tri-fluoromethyl)-2-pyridinyl]methyl}benzamide] | – | – | – | – | – | – | 100 | – | – | – | – | – | 77
